Patent US20070117818A1, “Pyrimidinone compounds useful as kinase inhibitors” (priority 2004, published 2007)

target: T1, hYAK3 (Homo sapiens, UniProt O43781); experiment: YAK3 Scintillation Proximity Assay using Ser164 of myelin basic protein as phosphoacceptor (kinase assay of purified hYAK3); type: biochemical; conditions: purified GST-hYak3-His6 (aa 124-526), 0.001 mM ATP, 4 μM Ser164 peptide, 2 hours at room temperature; pIC50 = −log10(IC50)
T1 construct: made in house; host or cells: baculovirus expression system in Sf9 cells
T1 sequence (O43781 124-526): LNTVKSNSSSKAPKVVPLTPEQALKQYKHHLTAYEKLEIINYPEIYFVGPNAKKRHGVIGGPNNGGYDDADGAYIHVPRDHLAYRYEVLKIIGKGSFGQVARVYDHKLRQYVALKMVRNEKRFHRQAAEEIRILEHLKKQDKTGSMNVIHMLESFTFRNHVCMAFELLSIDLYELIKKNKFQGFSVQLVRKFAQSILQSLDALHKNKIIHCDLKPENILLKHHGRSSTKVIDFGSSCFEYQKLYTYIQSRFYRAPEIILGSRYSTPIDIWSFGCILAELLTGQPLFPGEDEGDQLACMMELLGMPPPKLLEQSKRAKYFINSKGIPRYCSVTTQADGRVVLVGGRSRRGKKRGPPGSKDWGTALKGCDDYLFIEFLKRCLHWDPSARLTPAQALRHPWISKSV
Experimental: Substrate phosphorylation assays were carried out as follows:
YAK3 Scintillation Proximity Assays Using Ser164 of Myelin Basic Protein as the phosphoacceptor
The source of Ser164 substrate oeptide The biotinylated Ser164, S164A peptide (Biotinyl-LGGRDSRAGS*PMARR-OH), sequence derived from the C-terminus of bovine myelin basic protein (MBP) with Ser162 substituted as Ala162, was purchased from California Peptide Research Inc. (Napa, Calif.), and its purity was determined by HPLC. Phosphorylation occurs at position 164 (marked S* above). The calculated molecular mass of the peptide was 2166 dalton. Solid sample was dissolved at 10 mM in DMSO, aliquoted, and stored at −20° C. until use.
hYAK3: Glutathione-S-Transferase (GST)-hYak3-His6 containing amino acid residues 124-526 of human YAK3 (aa 124-526 of SEQ ID NO 2. in U.S. Pat. No. 6,323,318) was purified from baculovirus expression system in Sf9 cells using Glutathione Sepharose 4B column chromatography followed by Ni-NTA-Agarose column chromatography. Purity greater than 65% typically was achieved. Samples, in 50 mM Tris, 150 mM NaCl, 10% glycerol, 0.1% Triton, 250 mM imidazole, 10 mM β-mercapto ethanol, pH 8.0. were stored at −80° C. until use.
Kinase assay of purified hYAK3: Assays were performed in 96 well (Costar, Catalog No. 3789) or 384 well plates (Costar, Catalog No. 3705). Reaction (in 20, 25, or 40 μl volume) mix contained in final concentrations 25 mM Hepes buffer, pH 7.4; 10 mM MgCl2; 10 mM β-mercapto ethanol; 0.0025% Tween-20; 0.001 mMATP, 0.1 μCi of [γ-^33P]ATP; purified hYAK3 (7-14 ng/assay; 4 nM final); and 4 μM Ser164 peptide. Compounds, titrated in DMSO, were evaluated at concentrations ranging from 50 μM to 0.5 nM. […] Reactions were incubated for 2 hours at room temperature and were stopped by a 75 ul addition of 0.19 μg Streptavidin Scintillation Proximity beads (Amersham Pharmacia Biotech, Catalog No. RPNQ 0007) in PBS, pH 7.4, 10 mM EDTA, 0.1% Triton X-100, 1 mM ATP. Under the assay conditions defined above, the Km(apparent) for ATP was determined to be 7.2+-2.4 μM.

IC50 [nM] | SMILES
1.02 to 10 | NS(=O)(=O)c1cccc(Nc2nc(-c3ccc4nc(NC(=O)c5cccs5)[nH]c4c3)cc(=O)[nH]2)c1 [Ig, N-[5-(2-{[3-(Aminosulfonyl)phenyl]amino}-6-oxo-1,6-dihydro-4-pyrimidinyl)-1H-benzimidazol-2-yl]-2-thiophenecarboxamide]
10.2 to 100 | COCCNc1nc(-c2ccc3nc(NC(=O)c4cccs4)[nH]c3c2)cc(=O)[nH]1 [Il, N-[5-(2-{[2-(Methyloxy)ethyl]amino}-6-oxo-1,6-dihydro-4-pyrimidinyl)-1H-benzimidazol-2-yl]-2-thiophenecarboxamide]
102 to 1000 | O=C(Nc1nc2ccc(-c3cc(=O)[nH]c(NCCc4ccc(Cl)cc4Cl)n3)cc2[nH]1)c1cccs1 [Ip, N-[5-(2-{[2-(2,4-Dichlorophenyl)ethyl]amino}-6-oxo-1,6-dihydro-4-pyrimidinyl)-1H-benzimidazol-2-yl]-2-thiophenecarboxamide]
